Experiments:
[1] = molecular target: T1, D816V Kit (Homo sapiens, UniProt P10721, D816V); test: Kit D816V assay at Km (Caliper electrophoretic mobility shift); conditions: D816V Kit 0.5 nM, 15 uM ATP (Km), 1 uM Srctide, 25 C, 90 minutes; read-out: Biochemical Activity D816V IC50
T1 construct: purchased Carna Bioscience 08-156
Procedure: In order to assess the activity of chemical compounds against the relevant kinase of interest, the Caliper LifeSciences electrophoretic mobility shift technology platform is used. Fluorescently labeled substrate peptide is incubated in the presence of kinase and ATP so that a […] proportion of the peptide is phosphorylated. At the end of the reaction, the mix of phosphorylated (product) and non-phosphorylated (substrate) peptides are passed through the microfluidic system of the Caliper EZ Reader 2, under an applied potential difference. The presence of the phosphate group on the product peptide provides a difference in mass and charge between those of the substrate peptide, resulting in a separation of the substrate and product pools in the sample. As the pools pass a LEDS within the instrument, these pools are detected and resolved as separate peaks. The ratio between these peaks therefore reflects the activity of the chemical matter at that concentration in that well, under those conditions.
Kit D816V assay at Km: In each well of a 384-well plate, 0.04 ng/ul (0.5 nM) of D816V Kit (Carna Bioscience 08-156) was incubated in a total of 12.5 ul of buffer (100 mM HEPES pH 7.5, 0.015% Brij 35, 10 mM MgCl2, 1 mM DTT) with 1 uM Srctide (5-FAM-GEEPLYWSFPAKKK-NH2) and 15 uM ATP at 25 C for 90 minutes in the presence or absence of a dosed concentration series of compound (1% DMSO final concentration). The reaction was stopped by the addition of 70 ul of Stop buffer (100 mM HEPES pH 7.5, 0.015% Brij 35, 35 mM EDTA and 0.2% of Coating Reagent 3 (Caliper Lifesciences)). The plate was then read on a Caliper EZReader 2 (protocol settings:—1.9 psi, upstream voltage—700, downstream voltage—3000, post sample sip 35s). Data was normalized to 0% and 100% inhibition controls and the IC50 or EC50 calculated using a 4-parameter fit using GraphPad Prism.

[2] = molecular target: T2, Kit D816V in HMC1.2 cells (Homo sapiens, UniProt P10721, D816V/V560G); test: HMC1.2 autophosphorylation assay (Kit autophosphorylation at tyrosine 719, AlphaLISA); type: cell-based; conditions: HMC1.2 mast cell leukemia cells (Kit V560G and D816V), phospho-Y719 c-Kit, 90 minutes; read-out: Cellular Activity IC50
T2 construct: endogenous in cells; host or cells: HMC1.2
Procedure: 10,000 HMC1.2 cells were incubated in 22 ul culture media (phenol-red free IMDM, no serum) in each well of a 384-well plate and serum starved overnight in a tissue culture incubator (5% CO2, 37° C.). A 10-point dose concentration series of compound (25 uM-95.4 pM) were then added to the cells in a volume of 3.1 ul to each well (0.25% DMSO final concentration). After 90 minutes, 6 ul of 5× AlphaLISA Lysis Buffer (Perkin Elmer) supplemented with a protease and phosphatase inhibitor cocktail (Cell Signaling Technologies) was added to each well and shaken at 450 rpm for 15 minutes at 4° C. 10 ul of phospho-Y719 c-Kit and total c-Kit antibodies (15 nM final concentration, Cell Signaling Technologies) and 50 ug/ml AlphaLISA rabbit acceptor beads (Perkin Elmer) were added to each well and shaken at 300 rpm at room temperature for 2 hours. 10 ul of 100 ug/ml streptavidin donor beads (Perkin Elmer) were added to each well, blocked from light with aluminum adhesive and shaken at 300 rpm at room temperature for 2 hours. Fluorescence signal was obtained on Envision (Perkin Elmer) by AlphaScreen 384 well HTS protocol. Data was normalized to 0% and 100% inhibition controls and the IC50 was calculated using Four Parameter Logistic IC50 curve fitting.
This cell line contains Kit mutated at positions V560G and D816V resulting in constitutive activation of the kinase. The following compounds were tested in an assay to measure direct inhibition of Kit D816V kinase activity by assaying Kit autophosphorylation at tyrosine 719 on the Kit protein.

T2 sequence (P10721 26-976 V560G/D816V): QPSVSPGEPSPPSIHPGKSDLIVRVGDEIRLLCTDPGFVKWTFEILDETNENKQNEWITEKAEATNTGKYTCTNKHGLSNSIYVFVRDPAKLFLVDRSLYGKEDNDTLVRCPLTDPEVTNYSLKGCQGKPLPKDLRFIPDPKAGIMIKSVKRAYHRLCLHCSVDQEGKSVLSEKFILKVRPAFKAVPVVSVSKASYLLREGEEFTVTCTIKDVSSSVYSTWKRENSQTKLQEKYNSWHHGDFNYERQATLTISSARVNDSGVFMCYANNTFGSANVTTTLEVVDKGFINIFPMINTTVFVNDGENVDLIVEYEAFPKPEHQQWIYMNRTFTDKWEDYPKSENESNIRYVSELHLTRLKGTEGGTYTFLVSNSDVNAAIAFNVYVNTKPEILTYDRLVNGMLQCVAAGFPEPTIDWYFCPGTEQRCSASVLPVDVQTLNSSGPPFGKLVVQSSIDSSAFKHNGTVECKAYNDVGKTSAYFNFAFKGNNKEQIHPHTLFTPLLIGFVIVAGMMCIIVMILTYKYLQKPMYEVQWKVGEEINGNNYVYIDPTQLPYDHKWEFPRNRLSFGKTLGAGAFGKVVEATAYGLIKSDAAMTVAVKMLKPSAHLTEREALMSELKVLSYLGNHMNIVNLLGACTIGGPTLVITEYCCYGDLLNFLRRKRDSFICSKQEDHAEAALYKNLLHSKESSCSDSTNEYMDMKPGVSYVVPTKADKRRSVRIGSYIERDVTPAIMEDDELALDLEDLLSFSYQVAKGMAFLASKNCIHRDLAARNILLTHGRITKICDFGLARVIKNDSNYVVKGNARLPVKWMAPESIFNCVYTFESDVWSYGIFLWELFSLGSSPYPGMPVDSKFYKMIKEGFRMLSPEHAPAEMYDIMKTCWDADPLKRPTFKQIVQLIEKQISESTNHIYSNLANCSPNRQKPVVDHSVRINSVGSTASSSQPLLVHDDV
T1 sequence (P10721 26-976 D816V): as the sequence (P10721 26-976 V560G/D816V) above, with G535V counted along it

| SMILES | IC50 [1] [nM] | IC50 [2] [nM] |
| --- | --- | --- |
| Cn1cc(-c2cc3c(-c4ccc(NC(=O)Cc5ccc(Cl)cc5)cc4)ncnn3c2)cn1 [Compound 17] | 1.01 to 10 | 10 to 100 |
| Cn1cc(-c2cc3c(-c4ccc(NC(=O)Cc5ccc(F)cc5)cc4)ncnn3c2)cn1 [Compound 11] | 1.01 to 10 | 10 to 100 |
| CC[C@@H](C(=O)Nc1ccc(-c2ncnn3cc(-c4cnn(C)c4)cc23)cc1)c1ccc(Cl)cc1 [Compound 42] | 1.01 to 10 | < 10 |
| O=C(c1ccc(-c2cc3c(-c4ccc(NS(=O)(=O)c5ccc(Cl)cc5)cc4)ncnn3c2)cc1)N1CCC1 [Compound 66] | > 100 | 1000 to 10000 |

Results, then the compound that gave them:

| IC50 [1] [nM] | IC50 [2] [nM] | SMILES |
| --- | --- | --- |
| 1.01 to 10 | < 10 | Cn1cc(-c2cc3c(-c4ccc(NC(=O)C(N)c5ccc(Cl)cc5)cc4)ncnn3c2)cn1 (centres unmarked) [Compound 31, 2-amino-2-(4-chlorophenyl)-N-(4-(6-(1-methyl-1H-pyrazol-4-yl)pyrrolo[1,2-f][1,2,4]triazin-4-yl)phenyl)acetamide] |
| 1.01 to 10 | < 10 | Cn1cc(-c2cc3c(-c4ccc(NC(=O)C(C)(N)c5ccc(Cl)cc5)cc4)ncnn3c2)cn1 (centres unmarked) [Compound 47, 2-amino-2-(4-chlorophenyl)-N-(4-(6-(1-methyl-1H-pyrazol-4-yl)pyrrolo[1,2-f][1,2,4]triazin-4-yl)phenyl)propanamide] |
| < 1 | 10 to 100 | Cn1cc(-c2cc3c(-c4ccc(NS(=O)(=O)Cc5ccc(C#N)cc5)cc4)ncnn3c2)cn1 [Compound 40] |

From patent US10000496B2, “Compositions useful for treating disorders related to kit and PDGFR” (BLUEPRINT MEDICINES CORPORATION, priority 2015, dated 2018)
